≈ marks a conversion by molar mass, not a printed value. Where two headings read alike, the source gives them in different places.
Experiments:
MSSA = assay: MIC by broth microdilution method; type: cell-based; settings: for MIC: Staphylococcus aureus, MRSA / MSSA, read-out: MIC Vs MRSA (μg/ml) MSSA
MRSA = assay: MIC by broth microdilution method; type: cell-based; settings: for MIC: Staphylococcus aureus, read-out: MIC Vs MRSA (μg/ml) MRSA
MRSE = assay: MIC by broth microdilution method; type: cell-based; settings: for MIC: Staphylococcus epidermidis, MRSA / MRSE, read-out: MIC Vs MRSA (μg/ml) MRSE
[1] = Metabolic stability study in mouse liver microsomes; type: in vitro ADME; settings: 1 μM, 37° C.
Procedure: The above selected compounds have protected mice from infection at ED50 doses. Metabolic Stability Study: In vitro metabolic stability of the compounds was done in mouse liver microsomes prepared in house as per standard protocol. Compounds were tested at 1 μM concentration. Compounds were incubated for 15 and 60 minutes at 37° C. with 100 rpm in shaker bath. After the incubation samples were analysed by LC/MS (API-4000). Respective control (Propranalol) was included in the study.

Fab I = settings: 1 μM compound

CC(C)(C)OC(=O)N1CCC2(CC1)Cc1cc(/C=C/C(=O)N3CC=C(Cc4cccs4)CC3)cnc1NC2=O [Compound 94, (E)-tert-butyl 2-oxo-6-(3-oxo-3-(4-(thiophen-2-ylmethyl)-5,6-dihydropyridin-1(2H)-yl)prop-1-en-1-yl)-2,4-dihydro-1H-spiro[[1,8]naphthyridine-3,4′-piperidine]-1′-carboxylate]
MIC (MSSA; MSSA, broth microdilution): 0.5 µg/mL (≈ 0.911 µM)
MIC (MRSA; MRSA, broth microdilution): 0.5 µg/mL (≈ 0.911 µM)
MIC (MRSE; MRSE, broth microdilution): 1 µg/mL (≈ 1.82 µM)
Percentage of compound remained after 15 min [1]: 55.7%
Percentage of compound remained after 60 min [1]: 37.6%

CC(=O)N1CCC2(CC1)Cc1cc(/C=C/C(=O)N3CC=C(Cc4cccs4)CC3)cnc1NC2=O [Compound 96, (E)-1′-acetyl-6-(3-oxo-3-(4-(thiophen-2-ylmethyl)-5,6-dihydropyridin-1(2H)-yl)prop-1-en-1-yl)-1H-spiro[[1,8]naphthyridine-3,4′-piperidin]-2(4H)-one]
MIC (MSSA; MSSA, broth microdilution): 8 µg/mL (≈ 16.3 µM)
MIC (MRSA; MRSA, broth microdilution): 8 µg/mL (≈ 16.3 µM)
MIC (MRSE; MRSE, broth microdilution): 16 µg/mL (≈ 32.6 µM)

O=C1CCc2cc(/C=C/C(=O)N3CC=C(Cc4nccs4)CC3)cnc2N1 [Compound 97]
MIC Vs MRSA (μg/ml) MSSA (MSSA): 0.5 µg/mL (≈ 1.31 µM)
MIC Vs MRSA (μg/ml) MRSA (MRSA): 0.5 µg/mL (≈ 1.31 µM)
MIC Vs MRSA (μg/ml) MRSE (MRSE): 1 µg/mL (≈ 2.63 µM)
FAB-I inhibition %@1 μM (Fab I): 66.85%

O=C1CCc2cc(/C=C/C(=O)N3CC=C(Cn4cccn4)CC3)cnc2N1 [Compound 100]
MIC Vs MRSA (μg/ml) MSSA (MSSA; MSSA, broth microdilution): 128 µg/mL (≈ 352 µM)
MIC Vs MRSA (μg/ml) MRSA (MRSA; MRSA, broth microdilution): 128 µg/mL (≈ 352 µM)
MIC Vs MRSA (μg/ml) MRSE (MRSE; MRSE, broth microdilution): 128 µg/mL (≈ 352 µM)
FAB-I inhibition %@1 μM (Fab I): 77%

O=C1CCc2cc(/C=C/C(=O)N3CC=C(COc4ccccc4)CC3)cnc2N1 [Compound 107, (E)-6-(3-oxo-3-(4-(phenoxymethyl)-5,6-dihydropyridin-1(2H)-yl)prop-1-en-1-yl)-3,4-dihydro-1,8-naphthyridin-2(1H)-one]
MIC (MSSA; MSSA, broth microdilution): 4 µg/mL (≈ 10.3 µM)
MIC (MRSA; MRSA, broth microdilution): 4 µg/mL (≈ 10.3 µM)
MIC (MRSE; MRSE, broth microdilution): 4 µg/mL (≈ 10.3 µM)
FAB-I inhibition %@1 μM (Fab I): 95%

O=C1CCc2cc(/C=C/C(=O)N3CC=C(COc4ccc(Cl)cc4)CC3)cnc2N1 [Compound 113]
MIC Vs MRSA (μg/ml) MSSA (MSSA; MSSA, broth microdilution): >128 µg/mL
MIC Vs MRSA (μg/ml) MRSA (MRSA; MRSA, broth microdilution): >128 µg/mL
MIC Vs MRSA (μg/ml) MRSE (MRSE; MRSE, broth microdilution): >128 µg/mL
FAB-I inhibition %@1 μM (Fab I): 36%

O=C(/C=C/c1cnc2c(c1)CC1(CCN(C(=O)CO)CC1)C(=O)N2)N1CC=C(Cc2cccs2)CC1 [Compound 138, (E)-1′-(2-hydroxyacetyl)-6-(3-oxo-3-(4-(thiophen-2-ylmethyl)-5,6-dihydropyridin-1(2H)-yl)prop-1-en-1-yl)-1H-spiroa[[1,8]naphthyridine-3,4′-piperidin]-2(4H)-one]
Percentage of compound remained after 15 min [1]: 44.3%
Percentage of compound remained after 60 min [1]: 10.2%

NC(=O)N1CCC2(CC1)Cc1cc(/C=C/C(=O)N3CC=C(Cc4cccs4)CC3)cnc1NC2=O [Compound 139, (E)-2-oxo-6-(3-oxo-3-(4-(thiophen-2-ylmethyl)-5,6-dihydropyridin-1(2H)-yl)prop-1-en-1-yl)-2,4-dihydro-1H-spiro[[1,8]naphthyridine-3,4′-piperidine]-1′-carboxamide]
Percentage of compound remained after 15 min [1]: 21.6%
Percentage of compound remained after 60 min [1]: 7.3%

CC(C)CC(=O)N1CCC2(CC1)Cc1cc(/C=C/C(=O)N3CC=C(Cc4cccs4)CC3)cnc1NC2=O [Compound 140, (E)-1′-(3-methylbutanoyl)-6-(3-oxo-3-(4-(thiophen-2-ylmethyl)-5,6-dihydropyridin-1(2H)-yl)prop-1-en-1-yl)-1H-spiro[[1,8]naphthyridine-3,4′-piperidin]-2(4H)-one]
Percentage of compound remained after 15 min [1]: 1.9%
Percentage of compound remained after 60 min [1]: 1.7%

O=C1CCNc2cc(/C=C/C(=O)N3CC=C(Cc4nccs4)CC3)cnc2N1 [Compound 143, (E)-8-(3-oxo-3-(4-(thiazol-2-ylmethyl)-5,6-dihydropyridin-1(2H)-yl)prop-1-en-1-yl)-2,3-dihydro-1H-pyrido[2,3-b][1,4]diazepin-4(5H)-one]
Percentage of compound remained after 15 min [1]: 27.5%
Percentage of compound remained after 60 min [1]: 15.8%

O=C1CCc2cc(/C=C/C(=O)N3CC=C(Cc4cncs4)CC3)cnc2N1 [Compound 145]
Percentage of compound remained after 15 min [1]: 83.3%
Percentage of compound remained after 60 min [1]: 60.2%

CN1CCC2(CC1)Cc1cc(/C=C/C(=O)N3CC=C(Cc4cccs4)CC3)cnc1NC2=O [Compound 146, (E)-1′-methyl-6-(3-oxo-3-(4-(thiophen-2-ylmethyl)-5,6-dihydropyridin-1(2H)-yl)prop-1-en-1-yl)-1H-spiro[[1,8]naphthyridine-3,4′-piperidin]-2(4H)-one]
Percentage of compound remained after 15 min [1]: 57.9%
Percentage of compound remained after 60 min [1]: 15.8%

O=C(/C=C/c1cnc2c(c1)CN(CCN1CCC3(CC1)COC3)C(=O)N2)N1CC=C(Cc2cccs2)CC1 [Compound 147, (E)-3-(2-(2-oxa-7-azaspiro[3.5]nonan-7-yl)ethyl)-6-(3-oxo-3-(4-(thiophen-2-ylmethyl)-5,6-dihydropyridin-1(2H)-yl)prop-1-en-1-yl)-3,4-dihydropyrido[2,3-d]pyrimidin-2(1H)-one]
Percentage of compound remained after 15 min [1]: 4.0%
Percentage of compound remained after 60 min [1]: 2.2%
